Measurements published in patent US7211434B2, “Primitive neural stem cells and method for differentiation of stem cells to neural cells” (priority 2000, dated 2007).

Assays:
Assay type in all cases: cell-based, mouse
ES cells = test: Primary neural sphere colony formation from ES cells in serum-free low-density culture, 7 days; settings: for primary colony formation, factor alone: ES cells at relatively low cell densities, serum-free, 7 days in vitro
Description: For passaging ES cells, cultures were disaggregated with 0.05% trypsin dissolved in Tris-saline/EDTA for 5–10 minutes, mechanically dissociated, centrifuged and resuspended in culture medium.
Passaged ES cells were washed (2 times), centrifuged and resuspended in chemically defined serum-free media (Reynolds et al., 1992; Reynolds & Weiss, 1996) composed of a 1:1 mixture of Dulbecco's modified Eagle's medium (DMEM GIBCO) and F-12 nutrient (GIBCO) including 0.6% glucose (Sigma), 2 mM glutamine (GIBCO), 3 mM sodium bicarbonate (Sigma), and 5 mM HEPFS buffer (Sigma). A defined hormone and salt mixture (Sigma) that included insulin (25 (g/ml), transferrin (100 (g/ml), progestrone (20 nM), putrescine (60 (M), and selenium chloride (30 nM) was used instead of serum. ES cells were plated at various cell densities in 24-well culture plates (Nunclon) in the presence of either LIF (1000 U/ml), LIF+FGF2 (10 ng/ml; Upstate Biotech or Sigma) and 2 (g/ml heparin (Sigma), or in the absence of any exogenous growth factors. For short term (4–24 hours) neural differentiation, ES cells were plated in identical culture conditions in 24-well culture plates (Nunclon) that were precoated with poly-L-ornithine (15 μg/ml, Gibco).
Limiting dilution analysis was performed as previously described (Bellows and Aubin, 1989; Tropepe et al., 1999). ES cells were plated in 24-well plates containing LIF (1000 U/ml). Cell numbers were adjusted to give a starting concentration of 5000 cells/ml from which serial dilutions were made. Final cell dilutions ranged from 1000 cells per well to 1 cell per well in 0.5 ml aliquots. Cultures were left undisturbed for 7 days after which time the fraction of wells not containing sphere colonies for each cell plating density was calculated and those points were plotted against the number of cells plated per well. The number of cells required to form one sphere colony, which reflected the proportion of neural stem cells in the entire population, was then determined from the point at which the regression line crossed the 0.37 level (37%). […]

[1] = test system: ES-derived neural sphere colony cells; test: Subcloning of single ES-derived sphere colonies (secondary colony formation, self-renewal); settings: subcloned single primary colonies; factor alone
Description: Self-renewal of primary colony-formin) ES cells was assessed as previously described (Tropepe et al., 1999). Single sphere colonies were isolated, mechanically dissociated into a single cell suspension in 0.2 ml of serum-free media containing various combinations of LIF (1000 U/ml), […] (10 ng/ml), heparin (2 (g/ml), EGF (20 ng/ml; Upstate Biotech) or B27 supplement (1X) and cultured in 96-well (Nunclon) plates. Secondary sphere colonies were quantified after 7–10 days. A similar procedure was used for repeated passaging experiments. Cell viability after a 7-day culture period (sphere colony assay) or after 4–24 hours (short-term ES differentiation assay) was determined using trypan blue exclusion (1:2 dilution of 0.4% trypan blue; Gibco).

[2] = test system: neural stem cells from the E9.5 forebrain; test: Sphere colony formation from E9.5 forebrain neural stem cells
Description: Pregnant CD1 mice (Charles River, Quebec) of gestational age (9.5 (E9.5) or E11.5 (see below) were killed via cervical dislocation and embryos were removed as previously described (Chiasson et al., 1999; Tropepe et al., 1999). Dissected germinal zone from the E9.5 telencephalon was transferred to serum-free media and mechanically dissociated into a cell suspension with a fire-polished Pasteur pipette. Cell viability was assessed using trypan blue. Cells were plated at 10 cells/μl in 24-well (0.5 ml/well) uncoated plates (Nunclon) in serum-free media containing either FGF2 (10 ng/ml)+heparin (2 (g/ml) or FGF2+heparin+LIF (1000 U/ml). Self-renewal of neural stem cells that generated primary sphere colonies (selecting mainly floating colonies after 7 days in vitro) were routinely subcloned by mechanically dissociating a single colony in 0.2 ml of serum-free media, in identical growth factor conditions as the primary culture, and plated in uncoated 96-well (0.2 ml/well) plates (Nunclon). The number of new secondary colonies was quantified after a further 6–7 days in vitro. Neural stem cell colonies from the adult forebrain subependyma were isolated as previously described (Chiasson et al., 1999) and cultured as above.

Row | Substance | primary colony formation, factor alone (ES cells) | secondary neural stem cell colony formation [1] | estimated frequency of sphere colony forming cells (ES cells; limiting dilution assay in the presence of LIF (1000 U/ml)) | E9.5 neural stem cell proliferation, LIF alone ([2]; LIF alone) | numbers of neural stem cells forming sphere colonies, with FGF2 ([2]; LIF in the presence of FGF2, compared to FGF2 alone)
1 | EGF: growth factor, 20 ng/ml; Upstate Biotech (NSDSECPLSHDGYCLHDGVCMYIEALDKYACNCVVGYIGERCQYRDLKWWELR; Epidermal growth factor; UniProt P01133 971-1023, looked up) | no cell colonies were generated | not observed |  |  | 
2 | LIF: leukemia inhibitory factor, cytokine added at 1000 U/ml | floating sphere-like colonies were generated | not sufficient for secondary colony formation | ~0.2% | not sufficient for E9.5 neural stem cell proliferation | can enhance the numbers of FGF-responsive neural stem cells
